Experimental data: US11135163B2, “Peptide hydrogel properties and its applications” (Kansas State University Research Foundation, priority 2014, dated 2021)

Tests used:
[1] = Rheology of h9e/HSA hydrogel formation; assay type: physicochemical
Description: For albumin triggered hydrogel formation, 10 mM (1.74 wt %) peptide was first dissolved in 100 mM NaHCO3 solution. BSA and HSA were dissolved in water with 5 wt % concentration. The peptide solution and albumin solution were then mixed at different ratios for final mixtures of 1, 2, 3 mM h9e peptide with albumin from 0.1 to 5 wt %.
The storage (G′) and loss (G″) moduli of h9e hydrogels with different peptide/albumin ratios were measured on a rheometer system C-VOR 150 (Malvern instruments, Malvern, Worcestershire WR141XZ, United Kingdom) with a 20 mm diameter parallel plate test system. All rheological tests were carried out at 37° C. To determine the hydrogel forming rate, the peptide and albumin mixture was placed on the measuring system immediately after preparation and tested by a single frequency (1 Hz) method with steady shear strain (1%) for 1 hour

[2] = h9e-MSC medium hydrogel rheology; assay type: physicochemical
Description: Two different types of stem cell mediums were selected for this test. One is a low glucose DMEM medium with 2% (v/v) Fetal Bovine Serum (FBS) for Mesenchymal Stromal Cell (MSC medium). The other one is a N2B27 supplemented serum-free 2i medium with 0.5% (v/v) Bovine Serum Albumin (BSA) for rat Embryonic Stem Cell (ESC, 2i medium). The hydrogel formation process was monitored under a time sweep rheological test for 1 hour. The special shear-thinning and self-healing property of h9e peptide hydrogel was also tested. […] In addition, the stability of hydrogel as well as the peptide solution before the hydrogel formation was also tested.
The h9e peptide was synthesized according to the method mentioned above. Lyophilized peptide was added to 100 mM sodium bicarbonate and completely dissolved by magnetic stirring for 3 hours with a final peptide concentration of 10 mM. For hydrogelation, peptide solution was added into MSC medium or 2i medium and the mixture was hand-shaken for about 10 seconds or gently pipette mixed 3 times. The final peptide concentrations were 1, 2, and 3 mM.
The storage and loss moduli (G′ and G″, respectively) of h9e hydrogels were determined on a C-VOR 150 rheometer system (Malvern instruments, Malvern, Worcestershire WR141XZ, United Kingdom) with a 20-mm diameter parallel plate geometry and 500 μm gap size at 37° C. The methods for hydrogel formation test and shear-thinning and self-healing test were the same as the methods of cancer cell medium mentioned above. After 24 hours of hydrogel formation, 2 mM peptide hydrogel was diluted 20 fold by adding cell culture medium and thorough mixing by pipette. The diluted solution was transferred to rheometer system and tested under 1 Hz frequency and 1% shear strain at 4° C. for 1 hour.

Male Wistar rats = assay: In vivo hemostatic efficiency, cut rat tail model; conditions: all percent concentrations of h9e peptide solution
From the text: Similar to the method used by Mortazavi et al., in this study 30 rats were divided randomly into 5 groups of 6 animals each. […] Male Wistar rats were kept on AIN-93 diet with free access to water, under 12-h light-dark cycles, for one week. Before excising the tail, the rats were first anesthetized and maintained with 3% isoflurane until the eyelid closure reflex was lost and there was no reactive reflex in response to a toe pinch. In order to maintain an appropriate body temperature during anesthesia, a circulating water blanket was used at a temperature of 41-43° C. Following anesthesia, animals' tails were cut off at a thickness of 5 mm using a pair of mortuary scissors. The cut tail was immediately inserted into a small vial containing the appropriate treatment. The 1st group received topical saline solution (negative control) and the 2nd to 4th groups received topical h9e peptide solution at 1, 3, or 5 wt %, respectively. The 5th group received a topical application of a commercially available hemostatic agent as a positive control (Moore Medical CELOX* Hemostatic Granules). After treatment with above mentioned agents, the volume of blood lost was measured using a scaled test-tube. The bleeding time was measured using a stop watch. At the conclusion of the study, the rats were sacrificed using a CO2 chamber.

[3] = Instantaneous gelation time sweep of peptide sequences 1, 3 and 4; assay type: physicochemical; conditions: triggered with 100 mM CaCl2 solution (FIG. 12, 13)
Description: Similar to the methods used in U.S. 2013/0018004. Hydrogels were prepared with peptide 1, 3, and 4 alone, or mixture of peptide sequence 1 and 4 at 1:1 ratio. Hydrogels were triggered by calcium ions and BSA alone or co-trigger (calcium ions+BSA).

[4] = Oxygen transmission rate (OTR) of hydrogel; assay type: physicochemical
Description: Hydrogel: 1% h9e peptide was prepared in sodium bicarbonate solution, and 1% BSA was prepared in PBS solution as trigger solution. The h9e peptide solution and BSA solution was mixed at 1:1 volume ratio, and incubated at 37 C for 30 min to prepare hydrogel with 0.5% h9e peptide concentration and 0.5% BSA with a gel strength of about 450 Pa.
Oxygen transmission rate (OTR): The OTR of hydrogels is another important property for in vitro tissue and organ regeneration process. Standard PGmatrix hydrogels was used in this experiment. OTR is the steady state rate at which oxygen gas permeates through a material at specified conditions of temperature and relative humidity. Values are expressed in cc/m2/24 hr in metric units determined by MOCON, Inc. (Minneapolis, […].) for OTR measurement using OX-TRAN instrument according to the standard method. Both challenge gas (oxygen) and sweeper gas (nitrogen) was held at relatively humidity of 100% to avoid gel drying, and temperature will be kept at ambient. 3.75 ml hydrogel was used and spread into thin film to cover the 5 cm^2-area. Experiments were duplicated twice.

[5] = Hydrogelation and dynamic rheology of h9e in MEM; assay type: physicochemical; conditions: MEM without serum

hydrogel formation ([1]; 3 mM h9e peptide mixed with 5 wt % HSA): hydrogel was formed
hydrogel formation ([1]; peptide concentration 1 mM or HSA concentration 0.5 wt %): Hydrogel did not form
stable G′ ([2]; 1 mM h9e-MSC hydrogel): 70 Pa
G′ under 500% shear strain ([2]; 2 mM h9e-MSC hydrogel): lower than 0.2 Pa
stable G′ ([2]; 2 mM h9e-MSC hydrogel): 350 Pa
gel strength recovered ([2]; 2 mM h9e-MSC hydrogel, 1 min after shear ceased): greater than 90%
mechanical strength recovered ([2]; 2 mM h9e-MSC hydrogel, within a few minutes of 1% shear strain recovery test): 100%
stable G′ ([2]; 3 mM h9e-MSC hydrogel): 800 Pa
G′ and G″ after 20-fold dilution ([2]; diluted from 2 mM to 0.1 mM, 1 hour test): lower than 4 Pa
final gel strength after 30 minute gelation time sweep [3]: 240 Pa
OTR ([4]; 0.5% h9e, 0.5% BSA hydrogel, 100% relative humidity, ambient temperature): 3,984 cc/m^2-day
OT rate ([4]; h9e hydrogel at 0.5% peptide concentration): about 3,984 cc/m^2 per day
Substance: H-FLIVIGSIIGPGGDGPGGD-NH2 [h9e, FLIVIGSIIGPGGDGPGGD]
control of hemorrhage versus sterile saline negative control (Male Wistar rats): effective in controlling hemorrhage
solution to hydrogel transition [5]: did not stimulate this solution to hydrogel transitions effectively
